These results are taken from patent publication US10028911B2, “Sustained release formulation of methotrexate as a disease-modifying antirheumatic drug (DMARD) and an anti-cancer agent” (PACIRA PHARMACEUTICALS, INC., priority 2010, dated 2018).

The conditions of data set [1]: cited from earlier work.
Data set [2] is described as follows: Pharmacokinetic (PK) study in rats, subcutaneous injection, serum MTX by HPLC. The class given is in vivo, Male Sprague Dawley rats. To be noted: rat. Here is the method:
A pharmacokinetic (PK) study was performed in rats, comparing MTX solution control against four different formulations of MVL-encapsulated MTX at a dose level of 10 mg/kg. Male Sprague Dawley rats weighing 280-320 g received subcutaneous injections of either MTX solution or one of the MVL-encapsulated MTX formulations. The injections were made on the left lateral hind limb of each rat using 1 mL syringes fitted with 25G needles. Each treatment group contained 3 rats. Appropriate dilutions with sterile saline solution were performed to provide a dose of 10 mg/kg of MTX per rat, assuming an average rat weight of 300 g (final injection volume of 200 uL). Rats were ordered by pre-dose weight and then randomized into the different treatment groups.
Serum MTX analysis was performed to measure MTX in serum using a liquid-liquid extraction (LLE) HPLC method performed by an Agilent 1200 Series system produced by Agilent Technologies headquartered in Santa Clara, Calif. A 100 μL volume of rat serum was mixed with 300 μL of acetonitrile solution containing 1.1% formic acid (w/v) in a 1.5-mL Eppendorf tube. The deproteinization was carried out by vortexing for 1 minute, followed by centrifugation at 13,000 g for 5 minutes. The entire supernatant was transferred into a 1.5-mL microcentrifuge tube with screw cap. Acetonitrile was cleaned out by mixing 500 μL of chloroform with the supernatant. The tube was vortexed for 1 minute and then centrifuged at 13,000 g for 3 minutes. A 40 μL volume of the top aqueous portion was collected into a 100-μL vial insert for HPLC sample injection.
The HPLC system was equipped with a detector set at 302 nm and a 2.1-mm×250-mm Supelcosil LC-18-S with 5-μm particle size column. The mobile phase consisted of 102 mM sodium phosphate (dibasic), 32.5 mM citric acid, and 10% (v/v) acetonitrile (pH˜6.0). The flow rate was 0.6 mL/min, column temperature 35° C., and injection volume 20 μL. An MTX standard curve was prepared by spiking 6 different concentrations of MTX (22.7-727.1 ng/mL) into MTX-free rat serum. The MTX in each spiked standard was extracted using the same sample preparation method above.
Additional PK studies on Formulations 1 and 2 were performed as above, including some at reduced doses of MTX. The PK parameters from these studies are summarized below. […] The Cavg is the average plasma concentration over the 7 day time period.

Like-named read-outs stand apart in the source and are kept apart here. Bounds are passed on as bounds.

On to `CN(Cc1cnc2nc(N)nc(N)c2n1)c1ccc(C(=O)N[C@@H](CCC(=O)O)C(=O)O)cc1` [MTX Solution, methotrexate], for which the “standard AUC” value in data set [1] (oral immediate release dosage forms (Hoekstra et al. 2004)) was 2466 mcg/L-hr. In data set [1] (orally administered), the t1/2 was 8 to 10 h and the tmax is 1 to 3 h. Also, in data set [2] (10 mg/kg, FIG. 1), the “time to drop below LOQ in plasma” value is at most 24 h. Also, in data set [2] (MTX dose 10 mg/kg), the AUC/Dose came out at 1.55 µmol·h/L/mg/kg, the Cmax (usually the maximum level reached in the sampled fluid or tissue) amounted to 14.4 µM and the tmax turned out to be 0.5 h.
